Patent US12484574B2, “Agent for promoting undifferentiation and cryoprotective agent using aprotic zwitterion” (JAPAN SCIENCE AND TECHNOLOGY AGENCY, priority 2019, dated 2025)
Entries after “also recorded” stand apart in the source; their conditions may differ.

Assays:
[1] = Glass transition temperature and heat quantity by differential scanning calorimetry (DSC); type: physicochemical; conditions: 10 wt % in purified water, cooling −1° C./min, heating 5° C./min
Experimental: The glass transition temperature and the heat quantity were determined by differential scanning calorimetry (DSC). The measurement was performed with a cooling rate set to −1° C./min an d a heating rate set to 5° C./min.

[2] = test system: Wild-type zebrafish AB*; assay: Influence on development of zebrafish; type: in vivo; conditions: fertilized eggs cultured 1.5 to 24 hours
Experimental: All experiments were conducted based on a protocol approved by the animal experiment committee of Kanazawa University. Wild-type zebrafish AB* was raised at 28.5° C. with 14-hour light/10-hour dark cycles in a circulating water system. The medium used was E3 medium (5 mM NaCl, 0.17 mM KCl, 0.33 mM CaCl2, 0.33 mM MgSO4). The medium was supplemented with 1%, 2%, 5% or 10% DMSO or HLS (OE2imC3C). For each test group, eggs were fertilized and then cultured for 1.5 to 24 hours. The embryos thus cultured were washed with E3 medium twice and treated with 1-phenyl-2-thiourea (FUJIFILM Wako Pure Chemical Corp.) in order to prevent pigmentation. The embryos were stained with 0.6 mg/mL o-dianisidine (Tokyo Chemical Industry Co., Ltd.) for 15 minutes and fixed in 4% paraformaldehyde (FUJIFILM Wako Pure Chemical Corp.). The embryos were washed with phosphate-buffered saline containing 0.1% Tween (Sigma-Aldrich Co. LLC) twice. The survival rate was similar between DMSO and HLS (OE2imC3C) up to the 2% addition groups, whereas the survival rate differed largely therebetween in the 5% addition groups.

[3] = test system: Human skin fibroblasts; assay: Cell freezing, slow freezing method, viable cell count after thawing (Examples 2, 3); type: cell-based; conditions: 5% by weight in H2O; frozen to −80° C. at −1° C./min; FIG. 3, FIG. 6
Experimental: CultureSure® cryopreservation solution (manufactured by FUJIFILM Wako Pure Chemical Corp.) (hereinafter, referred to as “FM”) • H2O • 5% by weight of DMSO/H2O • 5% by weight of OE2imC3C/H2O
(§1) The cells to be frozen (two types) were centrifugally recovered by trypsin treatment and diluted with Dulbecco's modified Eagle medium (DMEM), and each cell concentration was measured. The types and cell concentrations of the cells are as follows. • Human skin fibroblasts 5.0×10^5 cells/100 μl • Mouse fibroblasts C57BL/6-GFP 5.0×10^5 cells/100 μl
(§2) Subsequently, the cells of each type were dispensed at 1 ml/tube to 1.5 ml tubes, centrifuged, suspended in 100 μl each of the cryopreservation solutions described above, and frozen at a cooling temperature of −80° C. at a cooling rate of −1° C./min using a cell freezing container Mr. Frosty®.
1 ml of a medium was added to the cryopreservation vial for thawing, and a supernatant was removed by centrifugation. Subsequently, the cells obtained by centrifugation were resuspended in a medium, followed by the measurement of a viable cell count. Then, culture was started in a 6-well plate. […]
The cells to be frozen were centrifugally recovered by trypsin treatment and diluted with Dulbecco's modified Eagle medium (DMEM), and the cell concentration was measured. […]

[4] = test system: Human skin fibroblasts / Mouse fibroblasts C57BL/6-GFP; assay: Cell state 24 hours after start of culture, slow freezing method (microscope); type: cell-based; conditions: 5% by weight in H2O, thawed, cultured 24 hours, cell type of FIG. 5 not stated
Experimental: as §1, §2
1 ml of a medium was added to the cryopreservation vial for thawing, and a supernatant was removed by centrifugation. Subsequently, the cells obtained by centrifugation were resuspended in a medium, followed by the measurement of a viable cell count. Then, culture was started in a 6-well plate.
24 hours after the start of culture, the sample was fixed in 4% paraformaldehyde (PFA) and observed under a microscope.

In the case of COCCOCCn1cc[n+](CCCC(=O)[O-])c1 [OE2imC3C], the Heat quantity [1] is reported as -198.7 J/g, the Tg [1] is reported as −85.69 °C and the Survival rate ([2]; Concentration 1 % (v/v for DMSO, w/v for HLS) in E3 medium) is reported as 27/27. The Survival rate ([2]; Concentration 2 % (v/v for DMSO, w/v for HLS) in E3 medium) was 27/27, the Survival rate ([2]; Concentration 5 % (v/v for DMSO, w/v for HLS) in E3 medium) was 27/27 and the Survival rate ([2]; Concentration 10 % (v/v for DMSO, w/v for HLS) in E3 medium) was 0/27. For the same compound, the “viable cell count after thawing” value [3] was “larger viable cell count than that in the case of using conventional DMSO; also recorded: superior to the commercially available cryopreservation solution (FM)” and the “cell state 24 hours after the start of culture” value [4] was “confirmed to adhere to the dish bottom”.
